Data: PMC12675575, “A BRET biosensor for measuring uncompetitive engagement of PRMT5 complexes in cells” (Nature Communications, 2025)
Where “and” joins values, the source holds several entries; their conditions need not be identical. Equal values may be shown once.

Legend:
PRMT5:MEP50 = test system: PRMT5:MEP50; design: method as in ref 1 (a number printed in a supplementary file, which may have a reference list of its own: not looked up in the article's list); conditions: HTRF, H4R3 monomethylation; read-out: Biochemical (nM), IC50; cited from earlier work
Z-138 cells = test system: Z-138 cells; design: method as in ref 2,3 (a number printed in a supplementary file, which may have a reference list of its own: not looked up in the article's list); conditions: read-out: Proliferation (nM), IC50; cited from earlier work
[1] = molecular target: NLuc-PRMT5 co-expressed with WDR77 (Homo sapiens, UniProt O14744); assay: Compound EC50 titrations against MTA, NanoBRET in HEK293 (NLuc-PRMT5 + WDR77), with global Gaddum/Schild or Morrison fits
Procedure: MTA (Sigma) was prepared at 100× in 100% DMSO and diluted to 10× in Opti-MEM. Inhibitors were run as 11 pt, 3-fold dilution curves and MTA as a seven point, 3-fold dilution curve starting at 100 μM. Cells were incubated for 2 h at 37 °C and 5% CO2 prior to BRET measurements. Data was normalized using Eq. (2) where BRETMIN = saturating compound + maximum [MTA], and BRETMAX = BRET signal under vehicle conditions. Curves were fit using Eq. (3), and EC50 values were plotted against MTA concentration to determine the linear range of MTA detection.

MAT2A [2] = assay: BRET probe sensitivity to MAT2A inhibition (Compound A) in live HEK293 cells expressing NLuc-PRMT5; type: cell-based; conditions: for normalized BRET signal (Figure S3D) / Normalized BRET probe signal: Log([Compound A]); for normalized BRET signal (Figure S3D): replicates; for Normalized BRET probe signal: 37 °C
Procedure: To measure BRET probe sensitivity to both MAT2A inhibition and exogenous MTA in live cells, HEK293 cells were pre-treated with 30 nM CBH-002 and incubated at 37 °C and 5% CO2 for 2 h. For MAT2A inhibition, a 20 µM, 3-fold, 11 pt titration series of Compound A (Selleckchem) was added to wells. Cells were incubated either at 37 °C (Fig. 3D) or room temperature (Fig. S3D). Data were normalized using Eq. (2), where BRETMIN = instrument background (no CBH-002), and BRETMAX = 2 h vehicle treatment, and fit curves were generated using Eq. (1). For MTA sensitivity cells were treated with a 1 mM, 11 pt, 2-fold series of MTA (Sigma) and cells were incubated at room temperature for 2 h, reading in 15 min intervals. Data were normalized using Eq. (2), where BRETMIN = instrument background (no CBH-002), and BRETMAX = 2 h + vehicle treatment. Data were fit with Eq. (1).

MAT2A [3] = assay: as above; type: cell-based; conditions: Log([Compound A]), 37 °C

NLuc-PRMT5 co-expressed with WDR77, sequence (O14744 whole entry): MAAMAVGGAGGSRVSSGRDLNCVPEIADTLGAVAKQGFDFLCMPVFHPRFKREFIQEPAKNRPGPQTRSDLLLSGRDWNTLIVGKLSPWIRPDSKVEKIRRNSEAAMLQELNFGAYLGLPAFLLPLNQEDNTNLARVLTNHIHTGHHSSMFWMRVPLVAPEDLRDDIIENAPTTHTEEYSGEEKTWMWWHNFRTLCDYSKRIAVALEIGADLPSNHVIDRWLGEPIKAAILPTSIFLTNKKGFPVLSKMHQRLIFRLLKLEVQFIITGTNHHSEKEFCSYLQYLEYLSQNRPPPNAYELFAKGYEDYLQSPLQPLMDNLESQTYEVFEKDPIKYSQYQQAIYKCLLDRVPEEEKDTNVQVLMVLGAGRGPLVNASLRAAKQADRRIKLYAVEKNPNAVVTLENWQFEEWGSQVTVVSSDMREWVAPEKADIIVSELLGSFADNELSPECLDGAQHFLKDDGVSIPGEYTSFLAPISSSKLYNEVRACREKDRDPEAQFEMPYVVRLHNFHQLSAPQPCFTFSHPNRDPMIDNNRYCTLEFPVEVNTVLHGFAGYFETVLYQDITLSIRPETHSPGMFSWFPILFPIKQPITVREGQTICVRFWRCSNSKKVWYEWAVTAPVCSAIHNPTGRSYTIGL
NLuc-PRMT5 co-expressed with WDR77, sequence (Q9BQA1 whole entry partner): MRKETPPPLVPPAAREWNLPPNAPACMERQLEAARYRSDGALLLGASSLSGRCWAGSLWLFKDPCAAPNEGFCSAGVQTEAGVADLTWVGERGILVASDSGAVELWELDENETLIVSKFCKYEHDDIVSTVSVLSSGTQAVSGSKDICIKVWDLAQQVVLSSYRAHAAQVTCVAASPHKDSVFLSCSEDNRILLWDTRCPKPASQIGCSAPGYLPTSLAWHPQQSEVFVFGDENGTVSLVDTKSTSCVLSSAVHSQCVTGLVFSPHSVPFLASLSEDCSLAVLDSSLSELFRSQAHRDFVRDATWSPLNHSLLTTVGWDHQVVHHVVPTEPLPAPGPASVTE

## CC(=O)N1CCC(Nc2cc(C(=O)NC[C@H](O)CN3CCc4ccccc4C3)ncn2)CC1 [GSK3326595]
PRMT5:MEP50
  IC50: 6.2 nM

## O=C(NC[C@H](O)CN1CCc2ccccc2C1)c1cc(NC2COC2)ncn1 [EPZ015666]
Z-138 cells
  IC50: 62 nM
[1]; Global Gaddum/Schild EC50 shift fit, MTA titration, HEK293
  Schild slope: 1.3 (1.15 - 1.47)
[1]; [MTA] 0 μM, HEK293
  Hill slope: 0.81
[1]; [MTA] 11.11 μM, HEK293
  Hill slope: 0.77
[1]; [MTA] 100 μM, HEK293
  Hill slope: 0.72
[1]; [MTA] 300 μM, HEK293
  Hill slope: 0.87
[1]; constant across [MTA], constrained to 1 for PF06939999 and GSK3326595
  Hill slope (Global/Schild fit): 0.75 (0.73 - 0.78)

## Nc1nc(=O)n(-c2ccccc2Cl)c2nc(C(F)(F)F)ccc12 [Compound A]
MAT2A [2]; uM 0.35, Time 0 min
  normalized BRET signal (Figure S3D): 102.31 and 101.27 and 102.49
MAT2A [2]; uM 0.35, Time 15 min
  normalized BRET signal (Figure S3D): 102.22 and 100.75 and 100.92
MAT2A [2]; uM 0.35, Time 30 min
  normalized BRET signal (Figure S3D): 98.94 and 102.77 and 99.88
MAT2A [2]; uM 0.35, Time 45 min
  normalized BRET signal (Figure S3D): 101.50 and 99.61 and 97.49
MAT2A [2]; uM 0.35, Time 60 min
  normalized BRET signal (Figure S3D): 100.91 and 99.04 and 97.98
MAT2A [2]; uM 0.35, Time 75 min
  normalized BRET signal (Figure S3D): 100.10 and 98.57 and 96.49
MAT2A [2]; uM 0.35, Time 90 min
  normalized BRET signal (Figure S3D): 99.02 and 98.37 and 97.43
MAT2A [2]; uM 0.35, Time 120 min
  normalized BRET signal (Figure S3D): 96.41 and 97.99 and 95.04
MAT2A [2]; uM 0.82, Time 0 min
  normalized BRET signal (Figure S3D): 101.24 and 100.09 and 103.66
MAT2A [2]; uM 0.82, Time 15 min
  normalized BRET signal (Figure S3D): 101.29 and 99.47 and 102.07
MAT2A [2]; uM 0.82, Time 30 min
  normalized BRET signal (Figure S3D): 99.28 (2×) and 100.85
MAT2A [2]; uM 0.82, Time 45 min
  normalized BRET signal (Figure S3D): 99.67 and 98.96 and 100.10
MAT2A [2]; uM 0.82, Time 60 min
  normalized BRET signal (Figure S3D): 100.24 and 98.62 and 99.55
MAT2A [2]; uM 0.82, Time 75 min
  normalized BRET signal (Figure S3D): 100.92 and 98.42 and 98.44
MAT2A [2]; uM 0.82, Time 90 min
  normalized BRET signal (Figure S3D): 100.92 and 98.07 and 97.73
MAT2A [2]; uM 0.82, Time 120 min
  normalized BRET signal (Figure S3D): 98.05 and 98.30 and 97.43
MAT2A [2]; uM 0.82, Time (h) 2
  Normalized BRET probe signal: 80.32 and 82.63 and 81.99
MAT2A [2]; uM 0.82, Time (h) 4
  Normalized BRET probe signal: 62.79
MAT2A [2]; uM 0.82, Time (h) 5
  Normalized BRET probe signal: 55.09 and 56.94 and 59.00
MAT2A [2]; uM 1.30, Time 0 min
  normalized BRET signal (Figure S3D): 100.00
MAT2A [2]; uM 1.30, Time 15 min
  normalized BRET signal (Figure S3D): 100.00
MAT2A [2]; uM 1.30, Time 30 min
  normalized BRET signal (Figure S3D): 100.00
MAT2A [2]; uM 1.30, Time 45 min
  normalized BRET signal (Figure S3D): 100.00
MAT2A [2]; uM 1.30, Time 60 min
  normalized BRET signal (Figure S3D): 100.00
MAT2A [2]; uM 1.30, Time 75 min
  normalized BRET signal (Figure S3D): 100.00
MAT2A [2]; uM 1.30, Time 90 min
  normalized BRET signal (Figure S3D): 100.00
MAT2A [2]; uM 1.30, Time 120 min
  normalized BRET signal (Figure S3D): 100.00
MAT2A [2]; uM 1.30, Time (h) 3
  Normalized BRET probe signal: 81.83 and 81.36 and 78.63
MAT2A [2]; uM 1.30, Time (h) 4
  Normalized BRET probe signal: 64.66 and 66.78 and 66.04
MAT2A [2]; uM 1.30, Time (h) 6
  Normalized BRET probe signal: 52.27 and 54.37 and 54.09
MAT2A [2]; uM 1.30, Time […]
  normalized BRET signal (Figure S3D): 100.00
MAT2A [2]; uM -0.13, Time 0 min
  normalized BRET signal (Figure S3D): 102.61
MAT2A [2]; uM -0.13, Time 30 min
  normalized BRET signal (Figure S3D): 99.28
MAT2A [2]; uM -0.13, Time 45 min
  normalized BRET signal (Figure S3D): 99.89 and 99.35 and 98.26
MAT2A [2]; uM -0.13, Time 60 min
  normalized BRET signal (Figure S3D): 99.27 and 98.76 and 97.87
MAT2A [2]; uM -0.13, Time 75 min
  normalized BRET signal (Figure S3D): 99.29 and 98.14 and 96.57
MAT2A [2]; uM -0.13, Time 90 min
  normalized BRET signal (Figure S3D): 99.41 and 97.78 and 96.89
MAT2A [2]; uM -0.13, Time 120 min
  normalized BRET signal (Figure S3D): 97.11 and 97.69
MAT2A [2]; uM -1.56, Time (h) 2
  Normalized BRET probe signal: 86.27 and 89.51 and 86.94
MAT2A [2]; uM -1.56, Time (h) 3
  Normalized BRET probe signal: 78.52 and 78.24 and 76.36
MAT2A [2]; uM -1.56, Time (h) 5
  Normalized BRET probe signal: 56.30 and 59.42 and 61.19
MAT2A [2]; uM -1.56, Time (h) 6
  Normalized BRET probe signal: 57.39 and 58.36 and 56.05
MAT2A [2]; uM -2.04, Time (h) 2
  Normalized BRET probe signal: 91.78 and 93.83 and 92.35
MAT2A [2]; uM -2.04, Time (h) 3
  Normalized BRET probe signal: 84.09 and 82.20 and 80.64
MAT2A [2]; uM -2.04, Time (h) 4
  Normalized BRET probe signal: 71.87 and 73.84 and 72.51
MAT2A [2]; uM -2.04, Time (h) 5
  Normalized BRET probe signal: 61.86 and 65.39 and 67.66
MAT2A [2]; uM -2.04, Time (h) 6
  Normalized BRET probe signal: 67.16 and 64.98 and 63.98
MAT2A [2]; uM -2.52, Time (h) 2
  Normalized BRET probe signal: 97.92 and 101.07 and 97.78
MAT2A [2]; uM -2.52, Time (h) 3
  Normalized BRET probe signal: 92.42 and 90.78 and 89.69
MAT2A [2]; uM -2.52, Time (h) 4
  Normalized BRET probe signal: 81.28 and 83.71 and 82.94
MAT2A [2]; uM -2.52, Time (h) 5
  Normalized BRET probe signal: 74.64 and 76.80 and 79.27
MAT2A [2]; uM -2.52, Time (h) 6
  Normalized BRET probe signal: 75.70 and 75.54 and 75.07
MAT2A [2]; uM -2.99, Time (h) 2
  Normalized BRET probe signal: 99.19 and 102.22 and 99.77
MAT2A [2]; uM -2.99, Time (h) 3
  Normalized BRET probe signal: 95.84 and 93.35 and 94.20
MAT2A [2]; uM -2.99, Time (h) 4
  Normalized BRET probe signal: 94.50 and 92.51 and 93.76
MAT2A [2]; uM -2.99, Time (h) 5
  Normalized BRET probe signal: 87.56 and 91.04 and 95.19
MAT2A [2]; uM -2.99, Time (h) 6
  Normalized BRET probe signal: 89.25 and 91.90 and 87.75
MAT2A [2]; uM -3.47, Time (h) 2
  Normalized BRET probe signal: 98.78 and 102.46 and 100.43
MAT2A [2]; uM -3.47, Time (h) 3
  Normalized BRET probe signal: 98.17 and 97.18 and 96.26
MAT2A [2]; uM -3.47, Time (h) 4
  Normalized BRET probe signal: 96.70 and 95.88 and 97.43
MAT2A [2]; uM -3.47, Time (h) 5
  Normalized BRET probe signal: 93.94 and 96.00 and 96.68
MAT2A [2]; uM -3.47, Time (h) 6
  Normalized BRET probe signal: 97.50 and 96.53 and 90.92
MAT2A [2]; live cells, pre-equilibrated CBH-002, 37 °C
  Time to plateau of BRET inhibition: ~ 5 h
MAT2A [2]; room temperature, 2-h interval
  Effect on CBH-002 binding at room temperature: did not impact CBH-002 binding
MAT2A [3]; uM 0.82, Time (h) 6
  Normalized BRET probe signal: 54.59 and 55.03 and 49.39
MAT2A [3]; uM 1.30, Time (h) 2
  Normalized BRET probe signal: 83.43 and 85.48 and 85.77
MAT2A [3]; uM 1.30, Time (h) 5
  Normalized BRET probe signal: 54.62 and 56.32 and 57.46
MAT2A [3]; uM -1.56, Time (h) 4
  Normalized BRET probe signal: 64.62 and 64.77 and 65.94
